Experimental data reported in a melting point compilation (Tetko et al.; mined from patent text by program, amines drawn as free bases though some values may be those of a salt).

Row | SMILES | melting point [°C]
1 | O=C1COc2cc(NCC(=O)N3CCC(Oc4ccc(Cl)cc4)CC3)ccc2N1 | 207 to 210
2 | COC(=O)CCCCCCCCCCCCCCCCCCCN1C(=O)c2ccccc2C1=O | 86.5 to 87.5
3 | COc1cc(Nc2c(C#N)cnc3cc(-c4ccc(C(=O)O)cc4)ccc23)c(Cl)cc1Cl | 282 to 283
4 | NC(=O)NS(=O)(=O)c1cccc(Cl)c1Cl | 197 to 200
5 | COC(=O)c1ccc(Cc2cn(C)c3ccc(NC(=O)CC4CCCC4)cc23)c(OC)c1 | 180 to 181
6 | O=C(Nc1nc(-c2ccco2)c(C(=O)C2CCOCC2)s1)c1ccccc1OC(F)(F)F | 131 to 134
7 | CC(=O)c1cnccc1-c1c(-c2ccccc2)nn2ccccc12 | 159 to 161
8 | CNS(=O)(=O)c1ccc2c(c1)S(=O)(=O)NC1CCCN21 (configuration not stated) | 244 to 245
9 | CCCCCCCCC(=O)N1C(=O)CCC1=O | 59 to 60
10 | COC(=O)c1cc(N)c(NC(C)=O)c(Br)c1O | 217 to 219
11 | O=CC(=O)c1ccc(OCCc2ccccc2)cc1 | 44 to 59
12 | CN(CCCCC(=O)OC[C@@H]1CC(c2ccc(-c3ccc(N4C[C@H](Cn5ccnn5)OC4=O)cc3F)cn2)=NO1)C(=O)OC(C)(C)C | 121
13 | CSc1nc(=O)n(-c2ccc(Cl)cc2)c(=O)[nH]1 | 292 to 295
14 | COc1ccc(CCC#N)cc1OC | 45 to 48
15 | COc1cc(NC(=O)OC(C)(C)C)cc2c1nc(C(F)F)n2-c1nc(N2CCOCC2)nc(N2CCN(S(=O)(=O)CCN(C)C)CC2)n1 | 200 to 202
16 | CN(CCCCc1ccccc1)CCCc1ccccc1 | 81 to 83
17 | CS(=O)(=O)c1ccc(-n2nc(C(F)(F)F)cc2-c2ccc(-c3ccsc3)cc2)cc1F | 72 to 74
18 | COc1ccc(Sc2ccc3c(c2)CC[C@H]2NC(=O)CC[C@]32C)cc1 | 194 to 196
19 | O=C1c2ccc([N+](=O)[O-])c3c([N+](=O)[O-])c(Br)cc(c23)C(=O)N1O | 233 to 234
20 | CCCC(=O)c1ccc(OCCN2CCN(c3cc(Cl)nnc3Cl)CC2)cc1 | 140 to 141
21 | N#CCNC(=O)c1ccc(Cl)cc1 | 185
22 | COC(=O)C(=C(/C)c1ccc(OC2CCCC2)c(OC)c1)/C(=C\c1ccccc1)C(N)=O | 133 to 134
23 | Cc1ccc(-c2c(C(=O)Nc3nccs3)nc(-c3cccc4ccccc34)n2Cc2ccccc2)cc1 | 231 to 232
24 | CCCCc1c(C(=O)O)[nH]c2c(Br)cccc2c1=O | 220
25 | O=C1c2cccc(OCc3ccccc3)c2-c2nn(CCNCCO)c3ccc(Cl)c1c23 | 165 to 167
26 | O=C1C(=CN2CCCC2)c2ccccc2N1c1cccc(Cl)c1 | 108 to 112

Row | SMILES | melting point [°C]
27 | CCOC(=O)C(=O)Nc1ccccc1C(=O)Nc1nnn[nH]1 | 231 to 232
28 | O=c1[nH]c2ccccc2c(=O)n1-c1ccc(Cl)cc1 | 288 to 290
29 | CC(C)(C)CC(SC1CCCCC1)c1c(O)cc(-c2ccccc2)oc1=O (configuration not stated) | > 225
30 | COc1ccccc1N1CCN(C(=O)OC(C)(C)C)CC1 | 70 to 71
31 | CC1CCN2C=CC3=C(N=C12)C(c1c[nH]c2ccccc12)CC=C3 (configuration not stated) | 190 to 192
32 | O=S(=O)(N=CN(CCO)CCO)c1cc(Br)cc(Br)c1 | 118
33 | COc1ccnc(CO)c1OC | 87 to 89
34 | CN1CCN(C2=N/C(=C\c3c[nH]c4ncc(-c5ccccc5)cc34)C(=O)N2)CC1 | 304
35 | COC(=O)[C@H](Cc1ccc(N)cc1)NC(=O)OC(C)(C)C | 86 to 89
36 | O=C1CN(c2ccccc2)C(=O)N1C(=O)c1ccc(-c2ccccc2)cc1 | 196 to 198
37 | CCOC(=O)c1c(O)c2cc(C)ccc2n(Cc2ccccc2)c1=O | 113
38 | CNc1cc(OC)c(OC)cc1[N+](=O)[O-] | 147
39 | COC(=O)CC1CCN(C(=O)C2CCN(c3ccc(C#N)cn3)CC2)CC1 | 112 to 115
40 | O=C(O)COc1ccc(C(=O)c2ccc(F)cc2)c2ccccc12 | 105 to 108
41 | COc1ccc2c(c1)NC(=O)C(CCCN1CCN(c3ccc(F)cc3)CC1)O2 (configuration not stated) | 153 to 154
42 | COc1ccc(C2=NN(C3CCN(C(=O)CN4C(=O)CCC4=O)CC3)C(=O)C(C)(C)C2)c2c1OC(C)(C)C2 | 240 to 241
43 | COc1ccc(NS(=O)(=O)c2ccc(N3CCNC3=O)cc2)cc1OC | 215 to 216
44 | CCCCc1ccc(S(=O)(=O)Nc2cc(C)on2)s1 | 96.5 to 101
45 | O=C(NCO)c1cccc(Oc2ccccc2)c1 | 112 to 113
46 | Cc1ccc2cc3nc4cccc(Cl)c4c-3[nH]c2c1 | 193 to 194
47 | CCC(OCC(F)F)c1ccc(Cl)c2nc3n(c12)CCCN3c1ccc(OC)nc1C (configuration not stated) | 130 to 132
48 | O=C(Cc1ccccc1)N[C@H](Cc1ccc(C(F)(F)F)cc1)[C@@H](O)c1ccc(F)cc1 (racemic) | 173 to 174
49 | C=C(Cn1cc[nH]c1=O)c1ccc(OC)c(OC2CCCC2)c1 | 110
50 | CC(C)C[C@H](NC(=O)OCc1ccccc1)C(=O)N[C@@H](Cc1ccccc1)C(=O)CS(C)(=O)=O | 142 to 144
51 | Cc1oc(-c2ccccc2)nc1CCOc1ccc(CCCCC2OC(=O)NC2=O)cc1 (configuration not stated) | 136 to 137
52 | Cn1c(C(F)(F)F)nn(-c2ccccc2N)c1=O | 101

Row | SMILES | melting point [°C]
53 | CCOC(=O)C(Cc1ccc(OCCBr)cc1)OCC (configuration not stated) | 110 to 114
54 | O=c1[nH]c2cc(Cl)cc(OCCNCc3ccccc3)c2[nH]1 | 192 to 193
55 | CC(=O)NCC1CN(c2ccc(-c3cccc(CN)c3)c(F)c2)C(=O)O1 (configuration not stated) | 170
56 | CSc1ccc(-n2c(-c3ccccc3)nc(SC)c(C#N)c2=O)cc1 | 204 to 205
57 | O=C(O)C1=Cc2ccc(C(F)(F)F)cc2OC1C(F)(F)F (configuration not stated) | 190 to 194
58 | Cc1cnc(N(C)C)nc1-c1ccncc1 | 114 to 116
59 | O=C1CN(c2cc(Oc3ccccc3)ccc2O)S(=O)(=O)N1 | 153 to 157
60 | CC1CC(=O)NN=C1c1ccc(-n2ccc(CN(C)C)c2)cc1 (configuration not stated) | 167 to 168
61 | FC(F)(F)Oc1ccc(C=Cc2nc[nH]n2)cc1 | 125 to 127
62 | COc1cc(C(F)(F)F)nn1-c1ccc(NC(=O)c2ccccc2F)cc1 | 167 to 168
63 | CCOC(C#Cc1cc(OC)c(OC)c(OC)c1)OCC | 62.5 to 63
64 | COc1ccc(CCN(C)CCCCc2ccc(NC(=O)c3cccc4c(=O)c5ccccc5[nH]c34)cc2)cc1OC | 120
65 | COc1nc(NC#N)nc(OC)n1 | > 300
66 | Cn1nc(-c2ccccc2)c(N)c1-c1ccccc1 | 80 to 81
67 | CCCCOC(=O)c1cc(=O)c2c(cc(OC)c3ncccc32)[nH]1 | 212 to 213
68 | CS(=O)C1C=Nc2cc(F)ccc2C1=O (configuration not stated) | 265
69 | CC[C@H](C)[C@H](NC(=O)[C@@H]1CCCN1C(=O)OCc1ccccc1)C(=O)NCC(C)C | 87 to 88
70 | Cn1nc(CNC(=O)c2ccccc2)nc1NCCCOc1cccc(CN2CCCCC2)c1 | 70
71 | CNC(=O)C1N=C(c2ccccc2)c2cc(Cl)ccc2NC1=O (configuration not stated) | 294
72 | CSc1ccccc1CNc1ncnc2c1sc1nc(N3CCCC3)c3c(c12)CC(C)(C)OC3 | 176 to 177
73 | O=C1N=NC(=O)N1c1ccccc1 | 102 to 107
74 | COC(=O)c1cn2c(=O)c(C)c(C)nc2s1 | 158 to 159
75 | c1ccc(CP(Cc2ccccc2)Cc2ccccc2-c2ccccc2CP(Cc2ccccc2)Cc2ccccc2)cc1 | 163 to 167
76 | N#CCc1cccc2c(-c3ccccc3)onc12 | 125 to 138
77 | COc1ccc(N2CCc3ccccc32)c([N+](=O)[O-])c1 | 88 to 90
78 | CC[C@@H](C(=O)O)n1ccc2ccc(Cl)cc2c1=O | 160

Row | SMILES | melting point [°C]
79 | CC(c1ccc(Cl)cc1)N(O)C(N)=O (configuration not stated) | 125 to 128
80 | COc1cc(-c2nc3ccc(OCCN(C)C)cc3n2Cc2ccccc2C(F)(F)F)cc(OC)c1OC | 151
81 | Cc1ccc(C#N)cc1-c1cc2cnc(NC3CCOCC3)nc2n(C)c1=O | 254
82 | Cc1c(C(=O)Nc2ccc(N3CCC(NCCO)CC3)c(C#N)c2)cnn1-c1ccc(C(F)(F)F)cc1 | 202
83 | CCCCOCCOC(=O)C1=C(C)NN=C(CC)C1c1cccc([N+](=O)[O-])c1 (configuration not stated) | 122
84 | CCOC(=O)c1ccc(NCCc2ccc(Cl)cc2)cc1 | 75 to 77
85 | CCOC(=O)C1=Cc2ccsc2S(=O)(=O)N1c1cccc(OC)c1 | 107 to 109
86 | O=C(O)c1cc2cc(Cl)ccc2nc1N[C@@H](CO)Cc1ccccc1 | 213 to 216
87 | O=C1CCC2(CCC(=O)c3cc(Cl)ccc32)C(=O)N1 (configuration not stated) | 282 to 284
88 | CC(=O)N[C@@H](CSC(c1ccccc1)(c1ccccc1)c1ccccc1)C(=O)NCCSC(=O)C(C)(C)C | 212 to 213
89 | CC(c1c[nH]cn1)c1cccc(CO)c1O (configuration not stated) | 135 to 136
90 | CCCN(CC)c1cc(C)nc(Oc2c(C)cc(Cl)cc2C)c1C | 74 to 76
91 | CC(C)c1nn(-c2ccc(C#N)nn2)cc1CCCO | 140 to 141
92 | COC(=O)c1c(C)nc2c(c(-c3ccccc3)nn2C)c1-c1ccc(F)cc1 | 142 to 144
93 | C=Cn1cc(C(=O)OCC)c(=O)c2c(C)c(F)c(F)c(F)c21 | 134 to 136
94 | COc1ccc(Br)cc1-c1cc(-c2cccc(Br)c2)no1 | 156
95 | CNC(=O)c1ccccc1Nc1nc(Nc2ccc3c(c2)CCN(C(=O)C(F)(F)F)CC3)ncc1Cl | 192 to 194
96 | CNc1nc(-c2ccc(F)cc2)cc(C(C)C)n1 | 75 to 76
97 | CC(=CN1CCC(CCCC2CCN(C=C(C)c3ccccc3)CC2)CC1)c1ccccc1 | 120
98 | O=C(O)/C=C/c1cc(OCC2CC2)nn1Cc1ccc(C(F)(F)F)cc1Cl | 195 to 196
99 | CC(N1C(=O)C(=O)N(c2ccc(C(C)(C)C)cc2)C1=S)C(C)(C)C (configuration not stated) | 209 to 210
100 | O=C(NC1=Nc2cc(OCCn3cccc3)ccc2C2=NCCN12)c1cccnc1 | 209
101 | CC(NNC=NN)C(=O)O (configuration not stated) | 239 to 241
102 | O=C(Cc1c2c(nn1-c1ccccc1)c(Cl)nc1ccccc12)N1CCN(Cc2ccccc2)CC1 | 210 to 212
